Reference: patent US20230278972A1, “SUBSTITUTED HALOALKYL SULFONANILIDE HERBICIDES” (FMC Corporation, priority 2020, published 2023)

Experiments:
Assay type in all cases: in vivo
[1] = system: Foxtail, Giant (giant foxtail, Setaria faberi); test: Test A postemergence, Foxtail, Giant; details: Postemergence
In short: (§1)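 Compounds in non-phytotoxic solvent with surfactant. Soil: loam/sand. Preemergence via directed soil spray after seeding; postemergence on seedlings 2–10 cm, one- to two-leaf.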

[2] = system: ragweed (common ragweed, Ambrosia artemisiifolia); test: Test A preemergence, ragweed; details: Preemergence; for Plant response rating, Ragweed: visual injury, 0 to 100 scale (0 no effect, 100 complete control), approx. 10 days; for Ragweed plant response rating: visual injury on 0 to 100 scale (0 no effect, 100 complete control), approximately 10 days
In short: as §1

[3] = system: Foxtail, Giant (giant foxtail, Setaria faberi); test: Test A preemergence, Foxtail, Giant; details: Preemergence; for Plant response rating, Foxtail, Giant: visual injury, 0 to 100 scale (0 no effect, 100 complete control), approx. 10 days; for Foxtail, Giant plant response rating: visual injury on 0 to 100 scale (0 no effect, 100 complete control), approximately 10 days
In short: as §1

[4] = system: barnyardgrass (Echinochloa crus-galli); test: Test A preemergence, barnyardgrass; details: Preemergence; for Plant response rating, Barnyardgrass: 0 to 100 scale (0 no effect, 100 complete control); for Barnyardgrass plant response rating: visual injury on 0 to 100 scale (0 no effect, 100 complete control), approximately 10 days
In short: as §1

[5] = system: barnyardgrass (Echinochloa crus-galli); test: Test A postemergence, barnyardgrass; details: Postemergence, 0 to 100 scale (0 no effect, 100 complete control)
In short: (§2)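 Whole-plant herbicidal screen in pots of loam blended with sand. Sprays used a surfactant-containing, non-phytotoxic solvent vehicle. Timing was preemergence soil-directed at planting or postemergence at the one- to two-leaf stage (2–10 cm).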

[6] = system: galium (catchweed bedstraw, Galium aparine); test: Test A postemergence, galium; details: Postemergence
In short: as §2

[7] = system: Ryegrass, Italian (Italian ryegrass, Lolium multiflorum); test: Test A preemergence, Ryegrass, Italian; details: Preemergence; for Plant response rating, Ryegrass, Italian: visual injury, 0 to 100 scale (0 no effect, 100 complete control), approx. 10 days; for Ryegrass, Italian plant response rating: visual injury on 0 to 100 scale (0 no effect, 100 complete control), approximately 10 days
In short: as §1

[8] = system: pigweed (Amaranthus retroflexus); test: Test A preemergence, pigweed; details: for Plant response rating, Pigweed: visual injury, 0 to 100 scale (0 no effect, 100 complete control), approx. 10 days; for Pigweed plant response rating: visual injury on 0 to 100 scale (0 no effect, 100 complete control), approximately 10 days
In short: as §2

[9] = system: Ryegrass, Italian (Italian ryegrass, Lolium multiflorum); test: Test A postemergence, Ryegrass, Italian; details: Postemergence
In short: as §1

[10] = system: corn (Zea mays); test: Test A postemergence, corn; details: Postemergence
In short: as §1

[11] = system: ragweed (common ragweed, Ambrosia artemisiifolia); test: Test A postemergence, ragweed; details: Postemergence
In short: as §1

[12] = system: blackgrass (Alopecurus myosuroides); test: Test A postemergence, blackgrass; details: Postemergence, 0 to 100 scale (0 no effect, 100 complete control)
In short: as §1

[13] = system: wheat (Triticum aestivum); test: Test A postemergence, wheat; details: Postemergence
In short: as §2

[14] = system: kochia (Bassia scoparia); test: Test A preemergence, kochia; details: Preemergence; for Plant response rating, Kochia: visual injury, 0 to 100 scale (0 no effect, 100 complete control), approx. 10 days; for Kochia plant response rating: visual injury on 0 to 100 scale (0 no effect, 100 complete control), approximately 10 days
In short: as §1

[15] = system: pigweed (Amaranthus retroflexus); test: Test A postemergence, pigweed; details: Postemergence
In short: as §1

[16] = system: kochia (Bassia scoparia); test: Test A postemergence, kochia; details: Postemergence
In short: as §1

[17] = 31 g ai/ha, visual injury on 0 to 100 scale (0 no effect, 100 complete control), approx. 10 days
[18] = 125 g ai/ha, 0 to 100 scale (0 no effect, 100 complete control)
[19] = 31 g ai/ha, visual injury, approx. 10 days
[20] = 500 g ai/ha, visual injury vs untreated controls after approx. 10 days, 0 to 100 scale (0 no effect, 100 complete control)
[21] = 500 g ai/ha, visual injury vs untreated controls after approx. 10 days
[22] = 31 g ai/ha, 0 to 100 scale (0 no effect, 100 complete control)
[23] = 125 g ai/ha, visual injury approx. 10 days, 0 to 100 scale (0 no effect, 100 complete control)
[24] = 125 g ai/ha, visual injury approx. 10 days

Cc1cc(C)c(N(COC(=O)C2CCCC2)S(=O)(=O)C(F)(F)F)cc1C1=NOC2(CCCC2)C1 [Compound 150]
40: Plant response rating, Galium [6, 17] | Plant response rating, Ryegrass, Italian ([7]; 31 g ai/ha) | Plant response rating, Pigweed ([8]; 31 g ai/ha) | Plant response rating, Pigweed [15, 18]
90: Barnyardgrass plant response rating ([4]; 125 g ai/ha) | Ryegrass, Italian plant response rating ([7]; 125 g ai/ha)
60: Plant response rating, Galium [6, 18] | Plant response rating, Wheat [13, 18]
10: Plant response rating, Kochia [16, 17] | Plant response rating, Kochia [16, 18]
20: Plant response rating, Foxtail, Giant [1, 18] | Plant response rating, Foxtail, Giant ([3]; 31 g ai/ha) | Plant response rating, Pigweed [15, 17]
100: Foxtail, Giant plant response rating ([3]; 125 g ai/ha) | Pigweed plant response rating ([8]; 125 g ai/ha)
50: Plant response rating, Barnyardgrass ([5]; 125 g ai/ha)
0: Plant response rating, Foxtail, Giant [1, 17] | Plant response rating, Ragweed ([2]; 31 g ai/ha) | Ragweed plant response rating ([2]; 125 g ai/ha) | Plant response rating, Barnyardgrass [4, 19] | Plant response rating, Barnyardgrass ([5]; 31 g ai/ha) | Plant response rating, Ryegrass, Italian [9, 17] | Plant response rating, Ryegrass, Italian [9, 18] | Plant response rating, Corn [10, 17] | Plant response rating, Corn [10, 18] | Plant response rating, Ragweed [11, 17] | Plant response rating, Ragweed [11, 18] | Plant response rating, Blackgrass ([12]; 31 g ai/ha) | Plant response rating, Blackgrass ([12]; 125 g ai/ha) | Plant response rating, Wheat [13, 17] | Plant response rating, Kochia ([14]; 31 g ai/ha) | Kochia plant response rating ([14]; 125 g ai/ha)

Cc1cc(F)c(C(=O)N2CC(C)OC(C)C2)cc1N(S(=O)(=O)C(F)(F)F)S(=O)(=O)C(F)(F)F (stereo not drawn) [Compound 235]
70: Plant response rating, Galium [6, 18] | Galium plant response rating [6, 20]
20: Plant response rating, Foxtail, Giant [1, 18] | Blackgrass plant response rating [12, 21] | Plant response rating, Wheat [13, 18]
60: Barnyardgrass plant response rating [5, 21] | Ryegrass, Italian plant response rating [9, 20] | Plant response rating, Ragweed [11, 18] | Wheat plant response rating [13, 20]
10: Plant response rating, Foxtail, Giant ([3]; 125 g ai/ha) | Foxtail, Giant plant response rating ([3]; 500 g ai/ha) | Plant response rating, Kochia [16, 18]
80: Ragweed plant response rating ([2]; 500 g ai/ha) | Pigweed plant response rating ([8]; 500 g ai/ha)
90: Ryegrass, Italian plant response rating ([7]; 500 g ai/ha) | Ragweed plant response rating [11, 20]
0: Plant response rating, Barnyardgrass ([4]; 125 g ai/ha, visual injury, approx. 10 days) | Plant response rating, Barnyardgrass ([4]; 500 g ai/ha) | Plant response rating, Barnyardgrass ([5]; 125 g ai/ha) | Plant response rating, Corn [10, 18] | Plant response rating, Blackgrass ([12]; 125 g ai/ha)
30: Foxtail, Giant plant response rating [1, 20] | Plant response rating, Pigweed ([8]; 125 g ai/ha) | Plant response rating, Ryegrass, Italian [9, 18] | Corn plant response rating [10, 20] | Plant response rating, Kochia ([14]; 125 g ai/ha) | Plant response rating, Pigweed [15, 18] | Pigweed plant response rating [15, 20] | Kochia plant response rating [16, 20]
50: Plant response rating, Ryegrass, Italian ([7]; 125 g ai/ha) | Kochia plant response rating ([14]; 500 g ai/ha)
40: Plant response rating, Ragweed ([2]; 125 g ai/ha)

COC1CCCN(C(=O)c2cc(N(C(C)=O)S(=O)(=O)C(F)(F)F)c(C)cc2C)C1 (stereo not drawn) [Compound 93]
30: Plant response rating, Ragweed [11, 22] | Plant response rating, Ragweed [11, 23] | Plant response rating, Wheat [13, 22] | Plant response rating, Pigweed [15, 22] | Plant response rating, Kochia [16, 23]
50: Plant response rating, Pigweed ([8]; 31 g ai/ha) | Kochia plant response rating ([14]; 125 g ai/ha) | Plant response rating, Pigweed [15, 23]
10: Plant response rating, Foxtail, Giant [1, 23] | Plant response rating, Kochia [16, 22]
20: Plant response rating, Ryegrass, Italian [9, 23] | Plant response rating, Corn [10, 23] | Plant response rating, Blackgrass ([12]; 31 g ai/ha)
60: Plant response rating, Foxtail, Giant ([3]; 31 g ai/ha) | Plant response rating, Barnyardgrass [5, 24] | Plant response rating, Wheat [13, 23]
0: Plant response rating, Foxtail, Giant [1, 22] | Plant response rating, Ragweed ([2]; 31 g ai/ha) | Plant response rating, Barnyardgrass [4, 19] | Plant response rating, Barnyardgrass ([5]; 31 g ai/ha) | Plant response rating, Ryegrass, Italian ([7]; 31 g ai/ha) | Plant response rating, Ryegrass, Italian [9, 22] | Plant response rating, Corn [10, 22] | Plant response rating, Kochia ([14]; 31 g ai/ha)
70: Ragweed plant response rating ([2]; 125 g ai/ha) | Plant response rating, Blackgrass [12, 24]
100: Pigweed plant response rating ([8]; 125 g ai/ha)
80: Foxtail, Giant plant response rating ([3]; 125 g ai/ha) | Barnyardgrass plant response rating ([4]; 125 g ai/ha) | Plant response rating, Galium [6, 22] | Plant response rating, Galium [6, 23] | Ryegrass, Italian plant response rating ([7]; 125 g ai/ha)
